PubChem BioAssay (NCI)
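Dose response: 5 concentrations. Exposure: 48 h. Format: 96-well plates. Endpoint: linear interpolation; highest concentration if not reached. TGI is the concentration that stops growth completely.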

Assays:
Assay in all cases: NCI tumour cell line growth inhibition, 48 h
IGROV1 ovarian = system: IGROV1 ovarian
786-0 renal = system: 786-0 renal
HS 578T breast = system: HS 578T breast
NCI-H23 lung = system: NCI-H23 lung
SK-MEL-2 melanoma = system: SK-MEL-2 melanoma
MDA-MB-435 = system: MDA-MB-435
A498 renal = system: A498 renal
K-562 leukemia = system: K-562 leukemia
UACC-62 melanoma = system: UACC-62 melanoma
COLO 205 colon = system: COLO 205 colon
OVCAR-3 ovarian = system: OVCAR-3 ovarian
SK-OV-3 ovarian = system: SK-OV-3 ovarian
SNB-75 CNS = system: SNB-75 CNS
SW-620 colon = system: SW-620 colon
ACHN renal = system: ACHN renal

| Structure (SMILES) | TGI (IGROV1 ovarian) | TGI (786-0 renal) | TGI (HS 578T breast) | TGI (NCI-H23 lung) | TGI (SK-MEL-2 melanoma) | TGI (MDA-MB-435) | TGI (A498 renal) | TGI (K-562 leukemia) | TGI (UACC-62 melanoma) | TGI (COLO 205 colon) | TGI (OVCAR-3 ovarian) | TGI (SK-OV-3 ovarian) | TGI (SNB-75 CNS) | TGI (SW-620 colon) | TGI (ACHN renal) |
| --- | --- | --- | --- | --- | --- | --- | --- | --- | --- | --- | --- | --- | --- | --- | --- |
| O=c1[nH]c(NCc2ccc(Cl)cc2)nc2nc[nH]c12 | > 100 µM | > 100 µM | > 100 µM | > 100 µM | > 100 µM | > 100 µM | > 100 µM | > 100 µM | > 100 µM | > 100 µM | > 100 µM | > 100 µM | > 100 µM | > 100 µM | > 100 µM |
| Cc1ccc(C2(c3ccc(F)cc3)OC(=O)c3ccccc32)c(O)c1 (stereo not given) | 34 µM | 32.1 µM | 77.4 µM | 44.9 µM | 30.2 µM | 31.6 µM | 36.7 µM | > 100 µM | 23 µM | 41.6 µM | 17.9 µM | 26.4 µM | 31.6 µM | 30.6 µM | 28.2 µM |
| C[C@]12CC(c3ccccc3O1)C(C(=O)Nc1nc(C34CC5CC(CC(C5)C3)C4)cs1)C(=O)N2 (stereo not given in full) | > 100 µM | > 100 µM | > 100 µM | > 100 µM | > 100 µM | > 100 µM | > 100 µM | > 100 µM | > 100 µM | > 100 µM | > 100 µM | > 100 µM | > 100 µM | > 100 µM | > 100 µM |
| COC1(CC[C@@H](C)COC2OC(CO)C(O)C(O)C2O)O[C@H]2C[C@H]3[C@@H]4CC=C5C[C@@H](OC6OC(CO)C(O)C(OC7OC(CO)C(O)C(O)C7O)C6OC6OC(C)C(O)C(O)C6O)CC[C@]5(C)[C@H]4CC[C@]3(C)[C@H]2[C@@H]1C (stereo not given in full) | 19.8 µM | 8.33 µM | 22.2 µM | 28.2 µM | 29.2 µM | 8.52 µM | 26.9 µM | > 62.8 µM | > 35.7 µM | > 37.5 µM | 32.2 µM | 15 µM | 11.2 µM | 6.51 µM | 30.1 µM |
| Cc1ccc2nc(-c3ccc(C(C)(C)C)cc3)oc(=O)c2c1 | 87.6 µM | 68.2 µM | 81.3 µM | 68.1 µM | 56.7 µM | 43 µM | 62.8 µM | 51 µM | 49.3 µM | 35.5 µM | 60.9 µM | 62.1 µM | 47.7 µM | > 100 µM | 36.6 µM |
| CCOC(=O)/C=C(\C(=O)OCC)n1cc(C)c(=O)n(Cc2cnnn2COCCOC(C)=O)c1=O | 21.8 µM | 14.9 µM | 46.8 µM | 34.2 µM | 41.7 µM | 28.1 µM | 35.9 µM | 19.2 µM | 31.1 µM | 4.33 µM | 26 µM | > 100 µM | 39.9 µM | 9.92 µM | 7.46 µM |
| O=C(/C(=C\I)c1ccccc1)c1ccccc1 | 26.3 µM | 14.6 µM | 19.1 µM | 25.9 µM | 21.4 µM | 26.5 µM | 30.3 µM | 26.7 µM | 12 µM | 11.9 µM | 5.71 µM | 32.3 µM | > 39.5 µM | 9.93 µM | 25.7 µM |
| O=C(O)[C@H](CCC[C@H]1C(=O)O[C@H](c2ccccc2)[C@H](c2ccccc2)N1C(=O)OCc1ccccc1)N[C@@H](c1ccccc1)[C@H](O)c1ccccc1 | > 100 µM | > 100 µM | 58.9 µM | 85.4 µM | 40.8 µM | 40.8 µM | 62.1 µM | > 100 µM | 44.1 µM | > 100 µM | 48.4 µM | > 100 µM | 55.1 µM | 68.5 µM | > 100 µM |
| OC1(c2ccc(Cl)cc2)c2ccccc2-c2nc3ccccc3n21 (stereo not given) | > 100 µM | > 100 µM | > 100 µM | > 100 µM | > 100 µM | > 100 µM | > 100 µM | > 100 µM | > 100 µM | > 100 µM | > 100 µM | > 100 µM | > 100 µM | > 100 µM | > 100 µM |
| CC1(C)COC2=C(C1)C(=O)c1ccccc1C2=O | 3.45 µM | 3.29 µM | 7.95 µM | 3.46 µM | 3.88 µM | 0.338 µM | 3.56 µM | 1.52 µM | 2.53 µM | 4.04 µM | 2.06 µM | 3.72 µM | 3.04 µM | 4.03 µM | 2.9 µM |
| Cc1nc2sc(C(=O)c3ccc(Cl)cc3)c(N)c2c(-c2ccccc2Cl)c1C(=O)Nc1ccccc1 | > 70.5 µM | 27.6 µM | 48.7 µM | 38.9 µM | 32.8 µM | 33.1 µM | 48 µM | > 51.8 µM | 29.6 µM | 37.4 µM | 33.9 µM | 31.3 µM | 29.7 µM | 29.4 µM | 67.7 µM |
| COC(=O)C1OC(O[C@H]2CC[C@]3(C)[C@H]4CC=C5[C@@H]6CC(C)(C)CC[C@]6(C(=O)OC6OCC(O)C(O)C6OC6OC(C)C(OC7OCC(O)C(O)C7O)C(OC7OCC(O)(CO)C7O)C6O)[C@H](O)C[C@@]5(C)[C@]4(C)CC[C@H]3C2(C)C)C(O)C(O)C1O (stereo not given in full) | 27.1 µM | 20 µM | 28.2 µM | 3.56 µM | 5.82 µM | 3.7 µM | 3.3 µM | > 100 µM | 6.08 µM | 2.92 µM | 23.2 µM | 24.9 µM | 19.5 µM | 19.2 µM | 10.1 µM |
| CC(Oc1ccccc1)C(=O)NNC(=O)OC(C)(C)C (stereo not given) | > 100 µM | > 100 µM | > 100 µM | > 100 µM | > 100 µM | > 100 µM | > 100 µM | > 100 µM | > 100 µM | > 100 µM | > 100 µM | > 100 µM | > 100 µM | > 100 µM | > 100 µM |
| O=C(NO)NCCCl | > 100 µM | > 100 µM | > 100 µM | > 100 µM | > 100 µM | > 100 µM | > 100 µM | > 100 µM | > 100 µM | > 100 µM | > 100 µM | > 100 µM | > 100 µM | > 100 µM | > 100 µM |
| O=C1C(c2c(O)[nH]c3ccc(Br)cc23)=Nc2ccc(Br)cc21 | > 100 µM | 46.9 µM | > 100 µM | 88 µM | > 100 µM | > 100 µM | > 100 µM | > 100 µM | > 100 µM | > 100 µM | > 100 µM | 90.8 µM | 41.3 µM | > 100 µM | > 100 µM |
| COc1cc2c(/C=C3/C(=O)N(C)c4ccc(O)cc43)c(Cl)[nH]c2cc1C | 19.9 µM | 15 µM | 28.9 µM | 3.28 µM | 17.9 µM | 0.124 µM | 5.39 µM | 11.7 µM | 13.6 µM | 2.37 µM | 0.597 µM | 3.13 µM | 20.8 µM | 21.3 µM | 16.8 µM |
| COc1ccc(C2C(=O)c3c(OC)cc(OC)cc3OC2c2cccnc2)cc1 (stereo not given) | > 100 µM | > 100 µM | > 100 µM | > 100 µM | > 100 µM | > 100 µM | > 100 µM | > 100 µM | > 100 µM | > 100 µM | > 100 µM | > 100 µM | 84.1 µM | > 100 µM | > 100 µM |
| C#CC(O)/C=C/CCCCCCC#CC/C=C\CC#CCCCCCCCCC(O)C#C (stereo not given) | 1.12 µM | 5.01 µM | 38.3 µM | 4.17 µM | 9.44 µM | 7.43 µM | 28.9 µM | > 21.6 µM | 23 µM | 7.41 µM | 24.5 µM | 32.3 µM | 23.4 µM | 14.2 µM | 29.5 µM |
